Test results taken from ChEMBL document CHEMBL3352621, “Pentapeptide boronic acid inhibitors of Mycobacterium tuberculosis MycP1 protease” (Bioorg Med Chem Lett, 2014).
Active and inactive are the calls of the source. Peptide text beside a SMILES is read from it. * marks the point of attachment. boroAla = C[C@H](N*)B(O)O

Columns and labels:
[1] = test system: Mycolicibacterium smegmatis
[2] = test system: Mycobacterium thermoresistibile
[3] = test system: Mycobacterium tuberculosis

Measured: inhibition

CC(C)[C@H](NC(=O)[C@H](C)N)C(=O)N[C@@H](CCCCN)C(=O)N[C@@H](C)C(=O)N[C@@H](C)B(O)O (H-AVKA-boroAla)
inactive: all assays above
